For data set [1], the system named is yeast (Saccharomyces cerevisiae). Nature of the data set: Inhibition of yeast growth when prepared with dextrose-agar plates. The format is cell-based. The source says:
The compounds of the present disclosure can reduce stains from the surfaces of teeth. The present compounds may also have anti-microbial activity. […] Thus, the compounds and compositions of the present disclosure may be used for reduction of teeth stains and/or as antimicrobials.

Data set [2] is described as follows: Destaining of boiling beads stained with tannic acid and iron(III) chloride (Example 2). Particulars: for Destaining: Experiment #1, 10 mL 0.1M solution on stained boiling beads; for Removal of stains (conclusion): Experiments #1 and #2, comparison with EDTA. On the procedure:
To simulate the effects of staining caused by coffee and tea, tannic acid and iron(III) chloride solutions were prepared.
To prepare the tannic acid solution, solid tannic acid was used. 0.1M FeCl3.6H2O and added to 100 mL of distilled water. 0.1 M solutions of MOPS buffer was prepared. Then 0.1M solutions of EDTA in distilled water, C-2 in MOPS, C-6 in MOPS, and deferiprone in MOPS, were prepared. For a tooth like structure, boiling beads made from synthetic silicate were used.
Methods were as follows: Experiment #1: Comparison of EDTA, C-2, and deferiprone destaining: The procedure was broken down into 2 phases: staining and destaining. In the staining phase, 7 beads were added to each of the 12 vials. 3 vials were labeled control, 3 were labeled EDTA, 3 were labeled C-2, and 3 were labeled Deferiprone. 0.1 mL of the tannic acid and iron(III) chloride were pipetted onto the boiling beads in the vials. After mixing, 9.8 mL of 0.1 M, pH 7 MOPS was added. The vials were left to stand for a week at room temperature to complete the staining. For the destaining phase, the liquid in each vial was discarded and the beads were rinsed with distilled water 3 times. Then the solutions were added to the vials according to Table 1, swirled and left for the destaining phase.
Experiment #2: Comparison of deferiprone, C-2, and C-6 destaining: The same procedure was followed for Experiment 2 except EDTA was replaced with C-6 solution.

Data set [3] relates to yeast. Briefly: Yeast growth curve in liquid YPD media, absorbance at 400 nm. The format is cell-based, Saccharomyces cerevisiae. As to conditions: for Final absorbance / Initial absorbance: 400 nm; for Final absorbance: after 24 hr; for Effect on yeast growth: growth curve over 24 hr, FIG. 8; for Initial absorbance: start of growth curve. On the procedure:
(§1) The following materials were used: peptone, dextrose/glucose, marmite/yeast extract, agar, 0.1 M EDTA in MOPS solution, 0.1 M C-2 in MOPS solution, 0.1 M C-6 in MOPS solution, and […] Deferiprone in MOPS solution, and water.
(§2) The yeast culture was prepared by adding dry baker's yeast to warm water and streaked on the media plates. Cultures were allowed to grow for 16-24 hours.
The growth curve experiment were carried out by measuring the inhibition of yeast culture in the presence of EDTA, C-2, C-6, and Deferiprone over time via absorbance at 400 nm (see FIG. 8).
The growth curve was used to measure the rate of growth of yeast over an 8 hour period with a final measurement after 24 hours. No growth is seen in the presence of EDTA. C-2, C-6, and Deferiprone show different levels of effectiveness (see FIG. 8).

Data set [4] has as its system yeast. Briefly: Disk diffusion on YPD agar plates with yeast cultures. The data set is classed as cell-based, Saccharomyces cerevisiae. As to conditions: plates incubated at 30° C. As for the experimental part: as §1
Plate media was prepared containing 2% dextrose, 2% peptone, 0.36 g of yeast extract, and 1.5% agar in 1 L of water. The mixture was heated to dissolve the ingredients, and then autoclaved. 10 mL of the media was added to petri dishes to prepare plates.
as §2
Disks to which C-2, C-6, EDTA, or Deferiprone were added were added to petri dishes containing yeast cultures. The plates were incubated at 30° C. The effect on yeast growth was visualized and measured over time. The zone sizes were measured to the nearest millimeter using a ruler or caliper, including the diameter of the disk in the measurement. The measurements were rounded up to the nearest millimeter.

A short description of data set [5]: Dissolution of deferiprone in distilled water. As to conditions: 0.1 M in distilled water; room temperature; magnetic bar. The data set is classed as physicochemical. On the procedure: (§3) 0.1 M of Deferiprone solution was made by mixing 1.3957 g and 100 mL of distilled water into a volumetric flask. […] The tables below (Table 5 and Table 6) summarizes the contents of the vials used in this part of the experiment.

Data set [6] is described as follows: Destaining of stained beads and sand white quartz (Example 3). Particulars: for Relative destaining effectiveness: comparison of C11, EDTA and Deferiprone. As for the experimental part:
Tannic acid and iron chloride solutions were prepared as in Example 2. In order to simulate a tooth like structure, boiling beads made from a synthetic silicate (Techniservice) and white quartz sand were used. Four vials were prepared with the following solutions and solids (Table 3).
0.1 mL of the tannic acid and iron(III) chloride were pipetted into each vial. They were mixed on a vortex for 10 seconds. Then, 9.8 mL of 0.1 M, pH 7.4 MOPS was added to each vial to adjust the pH to a neutral level. MOPS was used to mimic the pH of saliva. The contents were mixed again. […] The vials were left to stand for a week at room temperature. The following table (Table 4) summarizes the components added to the tooth-like solids.
The solids in the vials were washed with approximately 10 mL of MOPS. This step was to simulate a wash of the “tooth” like structure with a “saliva” like buffer. The vials were left for a week to allow time for unstained areas of the beads to stain.
After the structures were stained, experiments were carried out to test if the stains could be removed. Approximately 5 mL of C11 (1-(11′-Carboxydecyl)-3-Hydroxy-2-Methyl-4-Pyridinone) solution was pipetted into Vials #1 and #3. Vials #2 and #4 served as controls. The contents of the vials were then mixed by vortexing. The vials were left to de-stain for a week. After a week, the liquid was drained from the vials and a fresh 5 mL of C11 was pipetted. Vials were left to de-stain for another week.
EDTA was prepared as follows. 100 mM of EDTA was made by adding 9.164 g to 250 mL of deionized water. The solution was stirred for 10 minutes, then placed on a heater.
Three new vials were filled with 2.2346 g, 2.0195 g, 2.2600 g of beads followed by the salt (0.1 mL), then the tannic acid (0.1 mL), and finally the MOPS. […] Three other vials were filled with 2.115 g, 2.009 g, 2.115 g of sand white quartz and the solutions were added in sequence. […] The solutions were left to continue to stain for a week. After a week, all the vials were rinsed with 10 mL of MOPS. Supernatant was removed by using filter paper. 10 mL of MOPS was then added and the contents were stirred then left to sit for a week.
1 mL of the EDTA was pipetted into each vial. The resulting concentration was 0.01 M of EDTA in each vial. Vials were then mixed to ensure proper contact with the MOPS and EDTA molecules. Vials were left to sit for a week.
Two more pairs of vials (4th and 5th pairs) were prepared—one with the beads and the other with the sand. MOPS solution was added, but not EDTA. […] Two more pairs of vials (6th and 7th pairs) were prepared, again, one with beads and the other with sand. The purpose of these controls was to test if the destaining process could be accelerated. The EDTA concentration was increased from 0.01 M to 0.1 M and 10 mL of it was subsequently added to the vials along with 10 mL of MOPS.
as §3
These vials were left to stand for a week. After the week the vials were rinsed with distilled water until the liquid that the beads/sand were suspended in were clear.
The next set of experiments was carried out to determine how quickly the compositions were able to remove the stains.
Beads and sand solutions were rinsed with 10 mL of distilled water. […] The solutions were prepared as follows: (Table 11).

Molecules are shown by their SMILES.

In the case of `Cc1c(O)c(=O)ccn1CC(=O)O` [C-2, 1-Carboxymethyl-3-Hydroxy-2-Methyl-Pyrid-4-one], the Growth of yeast result in data set [1] (0.001 M) is “inhibited the growth of yeast”. Moreover, in data set [2], the Destaining entry is on record as “Destaining was immediately noted”; the “Removal of stains (conclusion)” value was “effective in removal of stains and act to remove stains faster than EDTA”. Also, in data set [3], the Final absorbance is reported as 1.761; the “Effect on yeast growth” value was “effective, although the effect was less than EDTA and Deferiprone”. Besides, the “Zone diameter (including the disk)” value in data set [4] worked out at 1.55 cm.

On to `Cc1c(O)c(=O)ccn1CCCCCC(=O)O` [C-6, 1-(6′-Carboxypentyl)-3-Hydroxy-2-Methyl-4-Pyridinone], for which the Growth of yeast entry in data set [1] (0.001 M) is “inhibited the growth of yeast”. Besides, the “Removal of stains (conclusion)” value in data set [2] was “effective in removal of stains and act to remove stains faster than EDTA”. In data set [3], the Final absorbance amounted to 1.840; the “Effect on yeast growth” value was “effective, although the effect was less than EDTA and Deferiprone”. The “Zone diameter (including the disk)” value in data set [4] was 1.45 cm.

On to `Cc1c(O)c(=O)ccn1C` [Deferiprone, 3-hydroxy-1,2-dimethylpyridin-4(1H)-one], for which the Growth of yeast result in data set [1] (0.003 M) is “inhibited the growth of yeast”. Further, in data set [2], the Destaining result is on record as “Destaining was immediately noted”. The “Removal of stains (conclusion)” value in data set [2] was “effective in removal of stains and act to remove stains faster than EDTA”. In data set [3], this compound showed a Final absorbance of 0.762. Also, the Initial absorbance in data set [3] is on record as 0.389. Moreover, the Solubility result in data set [5] was “slow solubility was observed”. In data set [6], the Relative destaining effectiveness entry is recorded as “most effective”. The “Duration of effective destaining” value in data set [6] (speed experiment, all Deferiprone dilutions (10 mL, 1 mL, 0.1 mL, 0.01 mL of 0.1M)) is given as “For about an hour the destaining for all the vials except the controls continued to be effective”. Besides, the “Stain removal immediately after addition” value in data set [6] (speed experiment, vials A3 and B3, 10 mL of 0.1M Deferiprone) is given as “the stains were removed”. For the same compound, the “Stained removed?” value in data set [6] (vial A2: beads, 10 mL of 0.1M deferiprone, after a week) was “Yes”; in data set [6] (vial A3: beads, 1 mL of 0.1M deferiprone & 9 mL of distilled water, after a week), “Yes”; in data set [6] (vial B2: sand white quartz, 10 mL of 0.1M deferiprone, after a week) it was “Yes”; in data set [6] (vial B3: sand white quartz, 1 mL of 0.1M deferiprone & 9 mL of distilled water, after a week), “Yes”. Further, the “Discoloration of the solution after addition” value in data set [6] (vials A2 and B2 (beads, sand), 10 mL of 0.1M deferiprone) is on record as “immediate discoloration”; in data set [6] (vials A3 and B3 (beads, sand), 1 mL of 0.1M deferiprone & 9 mL of distilled water) it was “relatively slower discoloration”.

In the case of `O=C(O)CN(CCN(CC(=O)O)CC(=O)O)CC(=O)O` [EDTA, ethylenediaminetetraacetic acid], in data set [2], the Destaining result was “slight difference after 15 minutes”. In data set [3], the Final absorbance is recorded as 0.481, the Initial absorbance is 0.375 and the “Effect on yeast growth” value is “No growth”. Also, in data set [6] (0.01 M EDTA in MOPS, beads, after a week), the Destaining of beads result was “partially destained”. Further, in data set [6] (0.01 M EDTA in MOPS, white quartz sand, after a week), the “Destaining of sand (colour of solution)” value is listed as “solutions were clear”. Moreover, the “Bleaching of beads and sand” value in data set [6] (EDTA 0.01 M to 0.1 M, beads and sand, after over a month) is “most of the beads and sand were bleached”. Besides, the Relative destaining effectiveness entry in data set [6] is listed as “followed by EDTA”.

Values taken from US20180338897A1, “ORAL COMPOSITIONS FOR REDUCING DENTAL STAINS” (New York University, priority 2017, published 2018).
